Data set [1] has as its target T1, HK2 (Mus musculus, UniProt O08528).
T1 construct: endogenous in cells; host or cells: 4T1 cells
T1 sequence (O08528 1-917): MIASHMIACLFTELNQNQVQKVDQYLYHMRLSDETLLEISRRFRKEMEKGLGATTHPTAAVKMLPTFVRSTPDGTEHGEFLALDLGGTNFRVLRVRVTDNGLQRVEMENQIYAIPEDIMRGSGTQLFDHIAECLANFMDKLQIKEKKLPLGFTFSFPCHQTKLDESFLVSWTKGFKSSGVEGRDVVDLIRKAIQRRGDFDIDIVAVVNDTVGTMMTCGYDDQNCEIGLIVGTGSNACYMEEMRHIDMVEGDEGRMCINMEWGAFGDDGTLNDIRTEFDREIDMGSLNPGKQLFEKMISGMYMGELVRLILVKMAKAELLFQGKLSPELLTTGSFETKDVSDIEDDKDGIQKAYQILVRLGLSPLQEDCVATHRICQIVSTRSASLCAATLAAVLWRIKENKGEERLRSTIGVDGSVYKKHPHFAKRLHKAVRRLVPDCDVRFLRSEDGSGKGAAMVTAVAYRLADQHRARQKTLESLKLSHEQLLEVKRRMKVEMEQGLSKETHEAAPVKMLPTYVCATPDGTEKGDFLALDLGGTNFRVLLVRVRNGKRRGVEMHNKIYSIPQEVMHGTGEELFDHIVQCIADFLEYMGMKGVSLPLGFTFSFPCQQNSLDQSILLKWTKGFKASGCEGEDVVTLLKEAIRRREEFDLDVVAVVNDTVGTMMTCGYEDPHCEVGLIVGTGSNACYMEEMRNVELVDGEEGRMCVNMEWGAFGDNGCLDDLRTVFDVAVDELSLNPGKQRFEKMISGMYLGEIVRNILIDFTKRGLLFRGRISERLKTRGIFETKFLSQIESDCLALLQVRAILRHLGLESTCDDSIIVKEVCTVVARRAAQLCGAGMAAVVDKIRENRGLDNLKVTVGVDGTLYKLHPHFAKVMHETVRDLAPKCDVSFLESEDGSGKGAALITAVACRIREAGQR
The data set is described as follows: TPD analysis: intracellular HK2 level. The following applies: for time-dependent HK2 expression after washout: TNBC cells, 1 µM, 12 h treatment then washout, n = 3. The class given is cell-based, murine.

The nature of data set [2]: ROS generation, DPBF bleaching assay under 671 nm laser. The class given is physicochemical. The following applies: 671 nm laser 40 mW, calculated relative to VPF, n = 5. The method, then:
The morphology in distilled water was observed via transmission electron microscopy (TEM; Philips). UV‒vis and fluorescence spectra were measured via a UV‒vis spectrometer (Agilent Technologies) and a fluorescence spectrometer (Hitachi), respectively. ROS generation was quantified via a bleaching assay using 1,3-diphenylisobenzofuran (DPBF; Cat. No. 105481; Sigma Aldrich).
(§1) AVPF and ANanoTAC represent the absorbance at the excitation wavelength (671 nm), whereas SVPF and SNanoTAC denote the slopes of the absorbance intensity over time. […] The resulting data were plotted, and kcat/KM was determined via Prism 10 software (GraphPad).

Data set [3] concerns the target T2, Cat-B (Homo sapiens, UniProt P07858).
T2 construct: purchased R&D systems 953CY
As to the kind of experiment: Enzymatic cleavage by Cat-B (LC/MS, HPLC). The class given is biochemical. The conditions noted are these: pH 5.5 MES buffer, 37 °C. The method, then: as §1

For data set [4], the target named is T3, Cat-E (Homo sapiens, UniProt P14091).
T3 construct: purchased R&D Systems 1294-AS
T3 sequence (P14091 54-396): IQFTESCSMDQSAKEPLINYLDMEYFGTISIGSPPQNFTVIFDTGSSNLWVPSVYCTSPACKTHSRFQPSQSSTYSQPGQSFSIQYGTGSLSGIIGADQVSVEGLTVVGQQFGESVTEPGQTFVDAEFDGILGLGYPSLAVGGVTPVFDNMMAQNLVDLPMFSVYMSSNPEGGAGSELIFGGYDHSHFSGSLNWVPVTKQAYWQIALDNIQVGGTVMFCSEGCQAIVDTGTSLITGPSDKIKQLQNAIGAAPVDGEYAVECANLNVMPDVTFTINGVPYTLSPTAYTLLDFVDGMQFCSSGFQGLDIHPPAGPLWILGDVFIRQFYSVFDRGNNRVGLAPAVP
The data set is described as follows: Enzymatic cleavage by Cat-E. The class given is biochemical. The following applies: pH 5.5 MES buffer, 37 °C, LC/MS. The method, then: (§2) AVPF and ANanoTAC represent the absorbance at the excitation wavelength (671 nm), whereas SVPF and SNanoTAC denote the slopes of the absorbance intensity over time. […] The cleavage rate of each sample was calculated by comparing the peak area to that of an equivalent amount of NanoTAC prior to enzyme incubation. The resulting data were plotted, and kcat/KM was determined via Prism 10 software (GraphPad).

For data set [5], the target named is T4, Cat-L (Homo sapiens, UniProt P07711).
T4 construct: purchased R&D Systems 952-CY
T4 sequence (P07711 114-333): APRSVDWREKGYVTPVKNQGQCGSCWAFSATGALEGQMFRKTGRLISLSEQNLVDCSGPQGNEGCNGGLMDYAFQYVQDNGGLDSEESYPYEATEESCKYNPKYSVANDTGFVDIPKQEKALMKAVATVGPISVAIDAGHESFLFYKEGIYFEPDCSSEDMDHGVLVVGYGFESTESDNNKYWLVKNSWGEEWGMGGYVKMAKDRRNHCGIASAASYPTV
The data set is described as follows: Enzymatic cleavage by Cat-L. The class given is biochemical. The conditions noted are these: pH 5.5 MES buffer, 37 °C, LC/MS. The method, then: as §2

Data set [6] has as its target T5, Cat-D (Homo sapiens, UniProt P07339).
T5 construct: purchased R&D Systems 1014-AS
As to the kind of experiment: Enzymatic cleavage by Cat-D. The class given is biochemical. The conditions noted are these: pH 5.5 MES buffer, 37 °C, LC/MS. The method, then: as §2

Data set [7] concerns the target T6, caspase-3 (CASP3) (Homo sapiens, UniProt P42574).
T6 construct: purchased R&D Systems 707-C3/CF
T6 sequence (P42574 29-175 limits assumed): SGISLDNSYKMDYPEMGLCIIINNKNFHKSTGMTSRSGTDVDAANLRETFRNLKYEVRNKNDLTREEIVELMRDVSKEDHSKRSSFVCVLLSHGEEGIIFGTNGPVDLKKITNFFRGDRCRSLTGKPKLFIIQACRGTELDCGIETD
T6 sequence (P42574 176-277 limits assumed): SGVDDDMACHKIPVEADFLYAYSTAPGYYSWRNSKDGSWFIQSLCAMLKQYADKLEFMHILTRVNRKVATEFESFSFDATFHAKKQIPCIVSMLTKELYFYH
The data set is described as follows: Enzymatic cleavage by caspase-3. The class given is biochemical. The following applies: pH 5.5 MES buffer, 37 °C, LC/MS. The method, then: as §2

Data set [8] deals with T7, matrix metalloproteinase-9 (MMP-9) (Homo sapiens, UniProt P14780).
T7 construct: purchased R&D Systems 911-MP
T7 sequence (P14780 94-707): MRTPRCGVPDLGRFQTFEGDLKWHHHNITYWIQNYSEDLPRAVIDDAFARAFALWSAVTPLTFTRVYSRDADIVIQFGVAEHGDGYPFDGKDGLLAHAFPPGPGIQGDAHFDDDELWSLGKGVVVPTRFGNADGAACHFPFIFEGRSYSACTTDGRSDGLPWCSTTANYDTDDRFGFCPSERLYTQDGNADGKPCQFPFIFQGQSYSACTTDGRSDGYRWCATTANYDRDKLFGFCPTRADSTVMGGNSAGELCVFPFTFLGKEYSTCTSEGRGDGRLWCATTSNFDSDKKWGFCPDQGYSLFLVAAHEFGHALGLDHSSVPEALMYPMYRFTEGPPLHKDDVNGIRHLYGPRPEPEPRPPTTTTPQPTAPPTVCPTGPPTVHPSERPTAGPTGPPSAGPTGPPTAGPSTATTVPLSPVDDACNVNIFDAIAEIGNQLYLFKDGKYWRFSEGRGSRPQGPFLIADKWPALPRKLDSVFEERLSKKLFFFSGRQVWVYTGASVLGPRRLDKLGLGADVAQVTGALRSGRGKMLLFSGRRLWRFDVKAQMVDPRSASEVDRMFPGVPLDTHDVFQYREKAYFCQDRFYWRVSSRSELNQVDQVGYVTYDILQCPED
As to the kind of experiment: Enzymatic cleavage by MMP-9. The class given is biochemical. The following applies: pH 5.5 MES buffer, 37 °C, LC/MS. The method, then: as §2

In data set [9] the test system is 4T1 cells. As to the kind of experiment: Intracellular ROS generation (DCFH-DA). The class given is cell-based, murine. The conditions noted are these: 1 μM, 12 h, +L (40 mW, 500 s), hypoxia 1% O2, DCFH-DA. The method, then: Diacetyldichlorofluorescein (DCFH-DA; Cat. No. 4091-99-0, Sigma Aldrich) was used to detect intracellular ROS. […] The cells were then incubated with DCFH-DA for 30 min and subsequently exposed to photoirradiation for 500 s at a power of 40 mW. NIRF images were captured via CLSM.

Data set [10] has as its system orthotopic 4T1 TNBC tumor. The data set is described as follows: Tumor inhibition in orthotopic TNBC mouse model. The class given is in vivo. The conditions noted are these: for complete regression (CR), mice with CR / mice in group: i.v. equivalent 5 mg/kg VPF, n = 5. The method, then: BL imaging was conducted every 4 days following the intraperitoneal injection of D-luciferin. The tumor volumes and body weights were measured every 2 days. Mice with tumor volumes exceeding 500 mm^3 were considered deceased.

Data set [11] concerns orthotopic 4T1 TNBC tumor. The conditions noted are these: tumors on day 3, flow cytometry, n = 5. The method, then: Following treatment of the TNBC mouse model described above, tumor tissues were collected on day 3 for immune cell population analyses. Single cells were isolated from the tumor samples via a tumor dissociation kit (Cat. No. 130-096-730; Miltenyi Biotechnology). An equal number of cells were incubated with FcBlock (Cat. No. 553142, BD Biosciences) for 5 min to prevent nonspecific IgG binding and then stained with appropriate antibodies to identify the populations of CRT-positive tumor cells (CD45^−CRT^+), mature DCs, CTLs, and regulatory T cells. As in the coculture study, HMGB1 and HSP70 in the tumor supernatants were assessed by western blot, while IL-18, IL-1β, TNF-α, IFN-γ, and IL-10 were measured via ELISA kits.

Data set [12] concerns rechallenged 4T1 TNBC. The conditions noted are these: day 15 after tumor rechallenge, ELISA, n = 3. The method, then: Sixteen days post-treatment, TNBC mice were inoculated with 4T1 cells (2 × 10^5 cells per mouse) into the fourth mammary fat pad opposite the primary TNBC site. Rechallenged tumor volumes were measured every 2 days. Fifteen days after tumor rechallenge, the population of splenic Tem cells (CD3^+; CD8^+; CD44^+ [Cat. No. 103016, Biolegend]; CD62L^low [Cat. No. 104407, Biolegend]) was analyzed via flow cytometry. Finally, the serum levels of IFN-γ, IL-6, and TNF-α were quantified via ELISA.
For orientation: An ELISA detects its analyte on a solid surface through an enzyme-linked reagent.

Data set [13] has as its system 4T1 cells. The following applies: without photoirradiation, absence (migration) or presence (invasion) of collagen, n = 5.
Details of data set [14]: method as in doi:10.1016/j.dyepig.2020.108598. The conditions noted are these: reference value used for calculation; cited from earlier work.

The values that follow come from paper PMC12464334, “Reprogramming of cancer metabolism via photoresponsive nano-PROTAC enhances pyroptosis-mediated immunotherapy” (Signal Transduction and Targeted Therapy, 2025).

Read-outs that look alike come from different tables or passages of the source. Bounds are passed on as bounds.

T5 sequence (P07339 65-412): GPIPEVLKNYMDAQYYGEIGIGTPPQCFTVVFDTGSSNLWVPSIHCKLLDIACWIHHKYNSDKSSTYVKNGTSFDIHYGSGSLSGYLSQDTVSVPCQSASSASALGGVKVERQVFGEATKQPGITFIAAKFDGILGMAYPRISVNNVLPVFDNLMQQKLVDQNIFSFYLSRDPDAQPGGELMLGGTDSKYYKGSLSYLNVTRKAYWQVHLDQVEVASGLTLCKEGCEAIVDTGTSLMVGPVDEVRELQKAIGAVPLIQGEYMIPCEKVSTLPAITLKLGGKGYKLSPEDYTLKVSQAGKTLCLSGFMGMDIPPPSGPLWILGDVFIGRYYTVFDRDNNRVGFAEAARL

Turning to `O=C(O)c1nn(Cc2ccc(Cl)cc2Cl)c2ccccc12` [lonidamine, reference compound], in data set [1], the “time-dependent HK2 expression after washout” value is reported as “initial reduction in the intracellular HK2 level followed by eventual regeneration”.
VPF-KRRPIYPALAK-lonidamine [NanoTAC]: the “ROS quantum yield (Φ)” value in data set [2] is “≈ 0.7823”. Also, in data set [3] (Cat-B with Z-FA-FMK, LC/MS), the “cleavage in presence of Cat-B with irreversible cysteine protease inhibitor” value is listed as “no detectable cleavage”. The “catalytic efficiency (kcat/KM)” value in data set [3] (NanoTAC 5-80 μM, 5 μg Cat-B, HPLC) was 27,898 M^−1S^−1. For the same compound, the “time for conversion into PROTAC and lysine-conjugated VPF (K-VPF) with Cat-B” value in data set [3] (LC/MS) was ≤ 1 h. Also, the “cleavage by Cat-E” value in data set [4] is listed as “no cleavage behavior”. In [5], the “cleavage by Cat-L” value is “no cleavage behavior”. For the same compound, the “cleavage by Cat-D” value in [6] is reported as “no cleavage behavior”. Besides, the “cleavage by CASP3” value in data set [7] is listed as “no cleavage behavior”. Besides, the “cleavage by MMP-9” value in data set [8] is reported as “no cleavage behavior”. Further, in data set [1] (4T1 cells, 1 μM, 12 h, anti-HK2 staining, CLSM), the “intracellular HK2 level after treatment” value is given as “significantly decreased intracellular HK2 levels”. Further, the “time-dependent HK2 expression after washout” value in data set [1] is listed as “sustained degradation of the target protein”. Besides, in [9], the “reduction of ROS production under hypoxia compared with normoxia” value is given as 36.1%. Further, the “survival of TNBC mice” value in data set [10] (+L, n = 5, log-rank test) is listed as “significantly prolonged survival”. For the same compound, the “complete regression (CR), mice with CR / mice in group” value in data set [10] (+L (200 mW, 15 min)) is listed as 3/5. For the same compound, the “complete regression (CR), mice with CR / mice in group” value in [10] (−L) is listed as 0/5. In addition, in data set [11], the “intratumoral Treg population, NanoTAC (+L) relative to NanoTAC (−L)” value stood at 72.01% and the “intratumoral Treg population, NanoTAC (+L) relative to VPF (+L)” value was determined as 44.81%. Besides, in data set [12], the “serum IFN-γ, fold of NanoTAC (+L)-treated CR mice over naive mice” value came out at 1.33 fold; the “serum IL-6, fold of NanoTAC (+L)-treated CR mice over naive mice” value stood at 1.32 fold; the “serum TNF-α, fold of NanoTAC (+L)-treated CR mice over naive mice” value is recorded as 1.4 fold. In [13], the “migratory and invasive phenotypes” value was “reduced migratory and invasive phenotypes”.
Take verteporfin [VPF, reference compound]: the “reduction of ROS production under hypoxia compared with normoxia” value in data set [9] is 79.1%. Moreover, the “complete regression (CR), mice with CR / mice in group” value in data set [10] (+L (200 mW, 15 min)) is reported as 0/5. In data set [14], the “ROS quantum yield (Φ)” value was 0.78.
